From the NIST ThermoML archive (doi:10.1016/j.tca.2012.05.004)

Test: xn = mol fraction of the nth substance listed
Conditions: 101.3 kPa, Liquid, Vibrating tube method

CCCCC(C)O (stereo not drawn) [2-hexanol] + ClCCCl
mass density [kg/m3]
Conditions	288.15 K	293.15 K	298.15 K	303.15 K	308.15 K	313.15 K
x1 = 0.0502	1223.08	1216.04	1208.98	1201.9	1194.78	1187.63
x1 = 0.0999	1188.97	1182.13	1175.27	1168.37	1161.45	1154.5
x1 = 0.1504	1157.18	1150.56	1143.9	1137.21	1130.49	1123.74
x1 = 0.2001	1126.22	1120.72	1114.91	1108.44	1101.9	1095.33
x1 = 0.2498	1099.98	1093.76	1087.5	1081.2	1074.85	1068.47
x1 = 0.2995	1073.96	1068.01	1061.96	1055.85	1049.7	1043.51
x1 = 0.3499	1048.88	1043.06	1037.18	1031.25	1025.28	1019.26
x1 = 0.3999	1025.35	1019.69	1013.99	1008.24	1002.45	996.615
x1 = 0.45	1003.14	997.678	992.164	986.594	980.978	975.219
x1 = 0.4994	982.243	976.929	971.582	966.175	960.716	955.218
x1 = 0.5501	961.948	956.802	951.619	946.386	941.113	935.792
x1 = 0.5999	942.875	937.885	932.861	927.787	922.674	917.511
x1 = 0.6498	924.759	919.925	915.048	910.129	905.161	900.15
x1 = 0.6995	907.657	903.05	898.319	893.543	888.715	883.843
x1 = 0.7499	891.009	886.457	881.863	877.224	872.535	867.8
x1 = 0.8004	874.928	870.513	866.056	861.55	856.996	852.392
x1 = 0.8499	859.958	855.674	851.345	846.966	842.537	838.058
x1 = 0.8998	845.485	841.327	837.125	832.874	828.565	824.204
x1 = 0.9482	831.995	827.968	823.889	819.755	815.567	811.322

ClCCCl [1,2-dichloroethane] + CCC(C)O
mass density [kg/m3]
Conditions	288.15 K	293.15 K	298.15 K	303.15 K	308.15 K	313.15 K
x2 = 0.0503	1231.77	1224.62	1217.45	1210.25	1203.02	1195.77
x2 = 0.0999	1204.93	1197.88	1190.8	1183.69	1176.55	1169.4
x2 = 0.1498	1179.01	1172.06	1165.09	1158.09	1151.05	1143.99
x2 = 0.1999	1153.69	1146.88	1140.03	1133.14	1126.22	1119.27
x2 = 0.2505	1128.43	1121.76	1115.05	1108.3	1101.51	1094.68
x2 = 0.2963	1106.34	1099.8	1093.22	1086.6	1079.94	1073.22
x2 = 0.3503	1080.63	1074.29	1067.22	1061.5	1055.06	1048.25
x2 = 0.3995	1057.91	1051.71	1045.45	1039.11	1032.79	1026.29
x2 = 0.4501	1034.98	1028.92	1022.81	1016.66	1010.45	1004.19
x2 = 0.4993	1013.03	1007.13	1001.19	995.186	989.131	983.023
x2 = 0.5486	991.648	985.947	980.168	974.12	968.223	962.22
x2 = 0.6	969.557	963.995	958.381	952.707	946.966	941.176
x2 = 0.6493	948.744	943.35	937.897	932.387	926.811	921.174
x2 = 0.6999	928.023	922.806	917.532	912.188	906.776	901.308
x2 = 0.7499	907.77	902.736	897.63	892.466	887.227	881.93
x2 = 0.7998	887.96	883.21	878.173	873.288	868.11	863.093
x2 = 0.8498	868.538	863.861	859.123	854.308	849.413	844.444
x2 = 0.8997	849.217	844.779	840.238	835.615	830.908	826.085
x2 = 0.95	829.951	825.697	821.349	816.932	812.451	807.826
